Results published in paper PMC3545992, “Trisubstituted Pyrazolopyrimidines as Novel Angiogenesis Inhibitors” (PLoS ONE, 2013).

What was measured:
HUVECs [1] = assay: Scratch assay (migration assay); type: cell-based, human; conditions: 10 µM, 16 h, HUVECs
Experimental: A: HMEC-1 cells were seeded in the same density as for the proliferation assay and treated with the respective compound at 30 µM for 72 h to test whether reduced cell numbers in the proliferation assay are due to inhibition of proliferation or to excessive cell death. No increase of detached, obviously dead or propidium iodide positive cells was detected. B and C: Confluent layers of HUVECs were scratched and the cells were allowed to migrate for 16 h in the presence or absence of 10 µM of the compounds. B: The columns indicate the area re-covered by migrating cells (n = 3, mean ± SEM, * p<0.05, One Way ANOVA, Dunnett). C: Scratches at endpoint, representative images taken out of three experiments.
HUVECs were seeded into a 24-well plate. After reaching confluency, cells were scratched using a 100 µl pipette tip. The wounded monolayers were washed twice with PBS containing Ca^2+/Mg^2+; then growth medium containing the indicated concentration of the compounds was added. After 16 h of migration, cells were washed and subsequently fixed with 4% paraformaldehyde. […] Images were taken using the TILLvisON system (TILL Photonics GmbH, Gräfelfing, Germany) and a CCD-camera connected to an Axiovert 200 microscope (Zeiss, Oberkochen, Germany). Quantitative image analysis of the cell covered area was done by Wimasis GmbH, Munich. A completely closed scratch was set as 100% migration, the area of the original open scratch was set as 0% migration.

HUVECs [2] = assay: Quantification of lamellipodia and Rac1 immunocytochemistry in migrating cells; type: cell-based, human; conditions: 8 h migration; for reduction of formation of lamellipodia: 10 µM; for recruitment of Rac1 to lamellipodia (in words): immunofluorescence
Experimental: A: Confluent layers of HUVECs were scratched and the cells were allowed to migrate for 8 h in the presence or absence of the respective concentration of the compounds, until clear lamellipodia formation was visible in the control. The actin cytoskeleton was then stained with rhodamin-phalloidine and fluorescence images (10x magnification) of the scratches were taken. Left panel: For quantitative evaluation of lamellipodia formation, cells with prominent lamellipodia and ruffles were counted in relation to the number of cells at the scratch front (n = 3, mean ± SEM, * p<0.05, One Way ANOVA, Dunnett). Right panel: Representative images of the scratch front (f-actin, 40x magnification). B: Cells treated like in A were fixed and stained for f-actin (red), cortactin (green) and Rac1 (white). Representative images out of three experiments are shown.
Confluent layers of HUVECs were scratched and stimulated in 8-well μ-slides as described above. The cells were allowed to migrate for 8 h in the presence or absence of the respective concentration of the compounds, until clear lamellipodia formation was visible in the control. The actin cytoskeleton was then stained with rhodamine-phalloidin (Life Technologies, Darmstadt, Germany) and fluorescence images of the scratches were taken in 10x magnification with the Zeiss LSM 510 META. For quantitative evaluation of lamellipodia formation, cells with prominent lamellipodia and ruffles were counted with ImageJ (Cell Counter plug-in by Kurt De Vos) in relation to the total number of cells at the scratch front. The ratio was calculated as number of lamellipodia-positive cells per 100 cells at scratch front. In the same setting immunofluorescence staining was performed. Fixed cells were permeabilized for 2 min with 0.1% Triton X-100 in PBS. Cells were washed and unspecific binding was blocked with 0.2% BSA in PBS for 15 min. Thereafter, cells were incubated with primary antibody (cortactin: rabbit polyclonal, 1∶100, Cell Signaling, and Rac1: mouse monoclonal, 1∶100, Upstate) in 0.2% BSA/PBS over night at 4°C. After three washing steps with PBS, the specimen were incubated with the corresponding AlexaFluor® -labeled secondary antibodies for 30 min at room temperature. Finally, the slides were again washed three times with PBS (5 min), embedded in FluorSave^TM Reagent mounting medium and covered with 8 mm ×8 mm glass cover slips.

HUVECs [3] = assay: Chemotaxis assay in FCS gradient (µ-slides Chemotaxis); type: cell-based, human; conditions: for chemotaxis of endothelial cells (in words): 10 µM; for inhibition at 10 µM: Homo sapiens, HUVEC, read-out: inhibition of chemotaxis in accumulative distance
Experimental: Figure 5 LGR 1404, 1406 and 1407 decrease chemotaxis of endothelial cells. Chemotaxis of HUVECs in the presence or absence of 10 µM of the indicated compounds was determined in µ-slides Chemotaxis. A: Quantitative evaluation of accumulated and euclidean distance, velocity and y-forward migration index (n = 3, mean ± SEM, * p<0.05, One Way ANOVA, Dunnett). B: Representative cell tracking plots of untreated and treated cells.
The effect of the LGR compounds on endothelial cell chemotaxis was determined using Collagen IV coated μ-slides Chemotaxis (ibidi, Martinsried, Germany). HUVECs (5×10^6 cells per ml) were seeded into the observation channel of the slides according to the manual of the manufacturer, and the cells were allowed to attach for 4 hours. Then, the chambers of the chemotaxis slide were completely filled with serum-free medium M 199; and growth medium containing 30% FCS was added to one chamber in order to generate an FCS-gradient from 0% to […]. 10 µM of the indicated compounds were added both to the M199 and to the 30% FCS. Chemotaxis was observed over 20 hours by live-cell imaging with a Zeiss LSM 510 META confocal microscope equipped with an incubator stage (EMBLem, Heidelberg, Germany). A time series was collected taking 1 picture every 10 minutes. For cell tracking and data analysis, the manual tracking plug-in (Fabrice Cordelieres) and the Chemotaxis and Migration Tool (Version 1.01, ibidi, Martinsried, Germany) for ImageJ were used. Euclidean distance (direct distance from the starting point to the end point) was used as an indicator of directionality of movement, accumulative distance (sum of all migrated distances from track to track) and velocity (mean velocity of every cell calculated as ratio between track to track distance and time) were used as a measure for total motility.

Cdk4/CycD1 = target: T1, Cdk4/CycD1 (Homo sapiens, UniProt P11802); assay: In vitro kinase profile (ProQinase); type: biochemical
T1 construct: purchased ProQinase (Freiburg, Germany)
Experimental: Therefore, it was of interest to see which kinases, especially which Cdks, are inhibited by those compounds. The kinase profiling was performed by ProQinase (Freiburg, Germany) for LGR 1406 and 1407. For LGR 1404 kinase profiling has recently been published previously. LGR 1406 and 1407 were tested for their IC50 in a panel of 24 kinases, including the Cdk1, Cdk2, Cdk4, Cdk5, Cdk6, Cdk7 and Cdk9. The other kinases tested were PTK6, EGFR, FAK, FGFR1 and FGFR2, NLK, PAK4, VEGFR1 and VEGFR2, MEK1, ROCK1, RAF1, ALK, RSK3, AURKA, and AMPKα1.

T1 sequence (P11802 whole entry): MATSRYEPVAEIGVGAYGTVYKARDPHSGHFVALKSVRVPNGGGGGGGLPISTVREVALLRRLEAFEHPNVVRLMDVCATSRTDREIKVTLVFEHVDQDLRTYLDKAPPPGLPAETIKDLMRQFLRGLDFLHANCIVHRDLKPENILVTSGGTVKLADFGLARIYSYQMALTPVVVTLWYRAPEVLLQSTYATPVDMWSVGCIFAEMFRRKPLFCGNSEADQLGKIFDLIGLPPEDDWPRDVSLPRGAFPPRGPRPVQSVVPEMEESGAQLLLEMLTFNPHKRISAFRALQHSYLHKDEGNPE
T1 sequence (P24385 whole entry partner): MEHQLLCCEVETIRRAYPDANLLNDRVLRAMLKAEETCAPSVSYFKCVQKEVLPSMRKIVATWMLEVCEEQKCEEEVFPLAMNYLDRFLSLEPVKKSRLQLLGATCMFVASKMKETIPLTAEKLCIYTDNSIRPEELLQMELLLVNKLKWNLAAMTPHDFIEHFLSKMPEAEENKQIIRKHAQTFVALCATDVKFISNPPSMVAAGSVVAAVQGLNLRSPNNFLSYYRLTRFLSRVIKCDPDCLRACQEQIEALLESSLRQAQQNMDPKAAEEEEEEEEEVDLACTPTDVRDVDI

SMILES	effect on endothelial cell migration (in words) (HUVECs [1])	reduction of endothelial cell migration (HUVECs [1])	reduction of formation of lamellipodia (HUVECs [2])	recruitment of Rac1 to lamellipodia (in words) (HUVECs [2])	chemotaxis of endothelial cells (in words) (HUVECs [3])	inhibition at 10 µM (HUVECs [3])	IC50 (Cdk4/CycD1)
CC[C@H](CO)Nc1nc(NCc2ccccc2)c2n[nH]c(C(C)C)c2n1 [LGR 1404, 7-Benzylamino-5(R)-[(1-hydroxymethyl)propylamino]-3-isopropyl-1(2)H-pyrazolo[4,3-d]pyrimidine]	significantly decrease	27%	54%	inhibit recruitment of Rac1 to lamellipodia	decrease	50%	–
CC(C)c1n[nH]c2c(NCc3ccccc3)nc(NC3CCCCC3N)nc12 (centres unmarked) [LGR 1406, 5-[(2-E/Z-aminocyclohexyl)amino]-7-benzylamino-3-isopropyl-1(2)H-pyrazolo[4,3-d]pyrimidine]	significantly decrease	51%	67%	inhibit recruitment of Rac1 to lamellipodia	decrease	70%	15 µM
CC(C)c1n[nH]c2c(NCc3ccccc3)nc(NC3CCC(N)CC3)nc12 (centres unmarked) [LGR 1407, 5-[(4-E-aminocyclohexyl)amino]-7-benzylamino-3-isopropyl-1(2)H-pyrazolo[4,3-d]pyrimidine]	significantly decrease	31%	67%	inhibit recruitment of Rac1 to lamellipodia	decrease	60%	66 µM
